CC(=O)S[C@@H]1CC2=CC(=O)CC[C@]2(C)[C@H]2CC[C@@]3(C)[C@@H](CC[C@@]34CCC(=O)O4)[C@H]12
Details	solubility (mole fraction)
in ethanol, 278.75 K	0.0017
in ethanol, 283.55 K	0.00197
in ethanol, 288.45 K	0.00238
in ethanol, 293.45 K	0.0031
in ethanol, 298.35 K	0.00394
in ethanol, 303.15 K	0.00491
in ethanol, 308.25 K	0.00606
in ethanol, 313.15 K	0.00771
in ethanol, 317.95 K	0.00975
in ethyl acetate, 278.85 K	0.0179
in ethyl acetate, 283.65 K	0.0198
in ethyl acetate, 288.55 K	0.0226
in ethyl acetate, 293.45 K	0.0246
in ethyl acetate, 298.3 K	0.0281
in ethyl acetate, 303.15 K	0.0314
in ethyl acetate, 308.1 K	0.0359
in ethyl acetate, 312.95 K	0.0412
in ethyl acetate, 317.75 K	0.0456
in isopropanol, 278.45 K	0.000994
in isopropanol, 283.55 K	0.00128
in isopropanol, 288.4 K	0.00168
in isopropanol, 293.25 K	0.00208
in isopropanol, 298.2 K	0.00265
in isopropanol, 303.05 K	0.00343
in isopropanol, 307.95 K	0.00445
in isopropanol, 312.9 K	0.00572
in isopropanol, 317.55 K	0.00731
in methanol, 278.85 K	0.000202
in methanol, 283.65 K	0.000267
in methanol, 288.55 K	0.000356
in methanol, 293.45 K	0.00041
in methanol, 298.3 K	0.000612
in methanol, 303.15 K	0.000813
in methanol, 308.1 K	0.00104
in methanol, 312.95 K	0.00139
in methanol, 317.75 K	0.00182
in n-butanol, 278.95 K	0.00194
in n-butanol, 283.65 K	0.00237
in n-butanol, 288.55 K	0.00309
in n-butanol, 293.45 K	0.00396
in n-butanol, 298.25 K	0.00469
in n-butanol, 303.05 K	0.00581
in n-butanol, 308.15 K	0.00732
in n-butanol, 312.95 K	0.00898
in n-butanol, 317.65 K	0.011
in n-propanol, 278.4 K	0.00228
in n-propanol, 283.65 K	0.0026
in n-propanol, 288.35 K	0.00326
in n-propanol, 293.25 K	0.00395
in n-propanol, 298.15 K	0.00488
in n-propanol, 303.05 K	0.00606
in n-propanol, 307.95 K	0.00756
in n-propanol, 312.9 K	0.00957
in n-propanol, 318.35 K	0.0121

From BigSolDB 2.1
